Experimental findings from patent US9051310B2, “Nicotinamide derivative or salt thereof” (FUJIFILM Corporation, priority 2011, dated 2015) are described below.

Bounds are passed on as bounds.

The assay addresses T1, glutathione S-transferase (GST)-linked full-length human Syk protein (Homo sapiens, UniProt P43405).
T1 construct: glutathione S-transferase (GST)-linked full-length human Syk protein; purchased Carna Biosciences; host or cells: Baculovirus expression system
The assay can be described thus: Syk enzyme assay. In kind it is biochemical. The conditions noted are these: 0.83 nM Syk, time-resolved fluorescence; read-out: IC50 of Syk-inhibitory activity. The protocol: A glutathione S-transferase (GST)-linked full-length human Syk protein (Carna Biosciences), which had been generated using a Baculovirus expression system, was used in the Syk enzyme assay.
7.5 μl of a reaction solution (0.83 nM Syk, 20 mM HEPES, 10 mM MgCl2, 50 mM NaCl, 2 mM DTT, 0.05% BSA, pH 7.0) containing a Syk protein and a predetermined concentration of a test compound was shaken for 2 minutes, and it was then left at rest at room temperature for 13 minutes. Thereafter, 0.5 μM substrate peptide (Biotin-[…]-NH2) and 5 μL of a solution containing 67.5 μM ATP were added to the reaction solution, and the obtained mixture was then shaken for 2 minutes. The reaction solution was further left at rest at room temperature for 40 minutes, so as to carry out an enzyme reaction.
Thereafter, 50 μL of a reaction termination solution [60 nM APC-SA, 0.45 μg/mL Eu-PT66, 30 mM HEPES (pH 7.0), 150 mM KF, 30 mM EDTA, 0.15% BSA, 0.075% Tween20] containing Allophycocyanin-Streptavidin (APC-SA; PerkinElmer) and an Eu-W1024-labeled anti-phosphotyrosine PT66 antibody (Eu-PT66; PerkinElmer) was added to the reaction solution to terminate the enzyme reaction. At the same time, the reaction solution was left at rest at room temperature for 1 hour, so as to carry out an antigen-antibody reaction. Thereafter, using EnVision (PerkinElmer), the level of time-resolved fluorescence was measured at 615 nm and 665 nm, so that the phosphorylation of the substrate peptide was measured.
The following are used in Table 5 to denote standards for evaluating IC50 of Syk-inhibitory activity. • A: Up to 10 nM • B: 10 to 50 nM • C: 50 to 100 nM
The term IC50 denotes the concentration needed to halve the response being measured. In the case of `CC[C@H](N)[C@H](Nc1nc(Nc2cc(F)c3c(c2)c(N(C)C)nn3C)c(C(N)=O)cc1F)C1CC1` [Example 2-383, 6-(((1R,2S)-2-amino-1-cyclopropylbutyl)amino)-2-((3-(dimethylamino)-7-fluoro-1-methyl-1H-indazol-5-yl)amino)-5-fluoronicotinamide], the IC50 is below 0.01 µM.

As to `COCCOc1ncc(Nc2nc(N[C@H](C3CC3)[C@H](C)N)c(F)cc2C(N)=O)cc1-n1nccn1` [Example 2-161, 6-(((1R,2S)-2-amino-1-cyclopropylpropyl)amino)-5-fluoro-2-((6-(2-methoxyethoxy)-5-(2H-1,2,3-triazol-2-yl)pyridin-3-yl)amino)nicotinamide], the IC50 was 0.01 to 0.05 µM.

With `COc1nn(C)c2c(F)cc(Nc3nc(N[C@H](CC4CC4)[C@H](C)N)c(F)cc3C(N)=O)cc12` [Example 2-157, 6-(((2R,3S)-3-amino-1-cyclopropylbutan-2-yl)amino)-5-fluoro-2-((7-fluoro-3-methoxy-1-methyl-1H-indazol-5-yl)amino)nicotinamide], the IC50 is below 0.01 µM.

In the case of `CCCC[C@@H](Nc1nc(Nc2cc(F)c3c(c2)c(OC)nn3C)c(C(N)=O)cc1F)[C@H](C)N` [Example 2-155, 6-(((2S,3R)-2-aminoheptan-3-yl)amino)-5-fluoro-2-((7-fluoro-3-methoxy-1-methyl-1H-indazol-5-yl)amino)nicotinamide], the IC50 is below 0.01 µM.

Take `CC[C@@H](Nc1nc(Nc2ccc3c(c2)c(N(C)C)nn3CCOC)c(C(N)=O)cc1F)[C@H](C)N` [Example 2-502, 6-(((2S,3R)-2-aminopentan-3-yl)amino)-2-((3-(dimethylamino)-1-(2-methoxyethyl)-1H-indazol-5-yl)amino)-5-fluoronicotinamide]: the IC50 is 0.01 to 0.05 µM.

Turning to `C[C@H](N)[C@H](Nc1nc(Nc2ccc3c(c2)c(N2CCCC2)nn3C)c(C(N)=O)cc1F)C1CC1` [Example 2-430, 6-(((1R,2S)-2-amino-1-cyclopropylpropyl)amino)-5-fluoro-2-((1-methyl-3-(pyrrolidin-1-yl)-1H-indazol-5-yl)amino)nicotinamide], the IC50 fell in the range of 0.01 to 0.05 µM.

Consider `NC(=O)c1cc(F)c(N[C@@H]2CCCC[C@@H]2N)nc1Nc1cnc(-n2ccnn2)c(F)c1` [Example 2-68, 6-(((1R,2S)-2-aminocyclohexyl)amino)-5-fluoro-2-((5-fluoro-6-(1H-1,2,3-triazol-1-yl)pyridin-3-yl)amino)nicotinamide], for which the IC50 lay within 0.01 to 0.05 µM.

For `C[C@@H](Nc1nc(Nc2ccc3c(c2)c(N(C)C)nn3C)c(C(N)=O)cc1F)[C@@H](N)C1CC1` [Example 2-301, 6-(((1S,2R)-1-amino-1-cyclopropylpropan-2-yl)amino)-2-((3-(dimethylamino)-1-methyl-1H-indazol-5-yl)amino)-5-fluoronicotinamide], the 50% inhibitory concentration (IC50) was 0.05 to 0.1 µM.

Take `Cc1ccc(Nc2nc(N[C@@H]3CCCC[C@@H]3N)c(F)cc2C(N)=O)cc1Cl` [Example 2-445, 6-(((1R,2S)-2-aminocyclohexyl)amino)-2-((3-chloro-4-methylphenyl)amino)-5-fluoronicotinamide]: the IC50 is below 0.01 µM.

As to `COCCn1nc(N(C)C)c2cc(Nc3nc(N[C@H](C4CCC4)[C@H](C)N)c(F)cc3C(N)=O)ccc21` [Example 2-506, 6-(((1R,2S)-2-amino-1-cyclobutylpropyl)amino)-2-((3-(dimethylamino)-1-(2-methoxyethyl)-1H-indazol-5-yl)amino)-5-fluoronicotinamide], the 50% inhibitory concentration (IC50) lay within 0.01 to 0.05 µM.

Regarding `CCOc1ncc(Nc2nc(N[C@H](C3CC3)[C@H](C)N)c(F)cc2C(N)=O)cc1-n1cccn1` [Example 2-164], the IC50 is 0.01 to 0.05 µM.

Consider `COCCn1nc(OC(F)F)c2cc(Nc3nc(N[C@@H](CN)CC(C)C)c(F)cc3C(N)=O)ccc21` [Example 2-542, (R)-6-((1-amino-4-methylpentan-2-yl)amino)-2-((3-(difluoromethoxy)-1-(2-methoxyethyl)-1H-indazol-5-yl)amino)-5-fluoronicotinamide], for which the IC50 is below 0.01 µM.

`CC(C)C[C@H](CN)Nc1nc(Nc2cnc3c(c2)c(N(C)C)nn3C)c(C(N)=O)cc1F` [Example 2-287, (R)-6-((1-amino-4-methylpentan-2-yl)amino)-2-((3-(dimethylamino)-1-methyl-1H-pyrazolo[3,4-b]pyridin-5-yl)amino)-5-fluoronicotinamide]: the IC50 lay in the range of 0.01 to 0.05 µM.

Regarding `COc1ncc(Nc2nc(N[C@H](C3CC3)[C@H](C)N)c(F)cc2C(N)=O)cc1F` [Example 2-62, 6-(((1R,2S)-2-amino-1-cyclopropylpropyl)amino)-5-fluoro-2-((5-fluoro-6-methoxypyridin-3-yl)amino)nicotinamide.], the IC50 fell in the range of 0.01 to 0.05 µM.

As to `CCn1ncc2cc(Nc3nc(N[C@H](c4ccc(OC)cc4)[C@H](C)N)c(F)cc3C(N)=O)ccc21` [Example 2-341, 6-(((1R,2S)-2-amino-1-(4-methoxyphenyl)propyl)amino)-2-((1-ethyl-1H-indazol-5-yl)amino)-5-fluoronicotinamide], the half-inhibitory concentration (IC50) was below 0.01 µM.

As for `CC(C)[C@@H](Nc1nc(Nc2ccc3c(cnn3C)c2)c(C(N)=O)cc1F)[C@H](C)N` [Example 2-104, 6-(((2S,3R)-2-amino-4-methylpentan-3-yl)amino)-5-fluoro-2-((1-methyl-1H-indazol-5-yl)amino)nicotinamide], the IC50 was in the range of 0.05 to 0.1 µM.

As to `COCCn1nc(N(C)C)c2cc(Nc3nc(N[C@@H]4CCCC[C@@H]4N)c(F)cc3C(N)=O)ccc21` [Example 2-500, 6-(((1R,2S)-2-aminocyclohexyl)amino)-2-((3-(dimethylamino)-1-(2-methoxyethyl)-1H-indazol-5-yl)amino)-5-fluoronicotinamide], the IC50 lay within 0.01 to 0.05 µM.

As to `CC[C@H](N)[C@H](Nc1nc(Nc2ccnc(OCCOC)c2)c(C(N)=O)cc1F)C1CC1` [Example 2-360, 6-(((1R,2S)-2-amino-1-cyclopropylbutyl)amino)-5-fluoro-2-((2-(2-methoxyethoxy)pyridin-4-yl)amino)nicotinamide], the IC50 fell in the range of 0.01 to 0.05 µM.

Consider `CC[C@@H](Nc1nc(Nc2cnc(N3CCOCC3)c(F)c2)c(C(N)=O)cc1F)[C@H](C)N` [Example 2-259, 6-(((2S,3R)-2-aminopentan-3-yl)amino)-5-fluoro-2-((5-fluoro-6-morpholinopyridin-3-yl)amino)nicotinamide], for which the IC50 fell in the range of 0.05 to 0.1 µM.

Consider `COCCn1ncc2c(Nc3nc(N[C@@H]4CCCC[C@@H]4N)c(F)cc3C(N)=O)cncc21` [Example 2-384, 6-(((1R,2S)-2-aminocyclohexyl)amino)-5-fluoro-2-((1-(2-methoxyethyl)-1H-pyrazolo[3,4-c]pyridin-4-yl)amino)nicotinamide], for which the IC50 was below 0.01 µM.

On to `C[C@H](N)[C@H](Nc1nc(Nc2cnc3c(c2)c(N(C)C)nn3C)c(C(N)=O)cc1F)C1CC1` [Example 2-290, 6-(((1R,2S)-2-amino-1-cyclopropylpropyl)amino)-2-((3-(dimethylamino)-1-methyl-1H-pyrazolo[3,4-b]pyridin-5-yl)amino)-5-fluoronicotinamide], for which the half-inhibitory concentration (IC50) was 0.01 to 0.05 µM.

With `COCCn1ncc2c(Nc3nc(N[C@H](C4CCC4)[C@H](C)N)c(F)cc3C(N)=O)cncc21` [Example 2-391, 6-(((1R,2S)-2-amino-1-cyclobutylpropyl)amino)-5-fluoro-2-((1-(2-methoxyethyl)-1H-pyrazolo[3,4-c]pyridin-4-yl)amino)nicotinamide], the half-maximal inhibitory concentration (IC50) was below 0.01 µM.

With `COCCn1nc(OC(F)F)c2cc(Nc3nc(N[C@H](C4CC4)[C@H](C)N)c(F)cc3C(N)=O)ccc21` [Example 2-176, 6-(((1R,2S)-2-amino-1-cyclopropylpropyl)amino)-2-((3-(difluoromethoxy)-1-(2-methoxyethyl)-1H-indazol-5-yl)amino)-5-fluoronicotinamide], the IC50 was below 0.01 µM.

Take `CC[C@H](N)[C@@H](C)Nc1nc(Nc2ccc3[nH]nc(NC)c3c2)c(C(N)=O)cc1F` [Example 2-491, 6-(((2R,3S)-3-aminopentan-2-yl)amino)-5-fluoro-2-((3-(methylamino)-1H-indazol-5-yl)amino)nicotinamide]: the IC50 was in the range of 0.01 to 0.05 µM.

As for `CN(C)c1nn(C)c2ncc(Nc3nc(N[C@@H]4CCOC[C@@H]4N)c(F)cc3C(N)=O)cc12` [Example 2-335, 6-(((3R,4R)-3-aminotetrahydro-2H-pyran-4-yl)amino)-2-((3-(dimethylamino)-1-methyl-1H-pyrazolo[3,4-b]pyridin-5-yl)amino)-5-fluoronicotinamide], the IC50 lay within 0.01 to 0.05 µM.

As to `CCOc1ncc(Nc2nc(N[C@H](CC)[C@H](C)N)c(F)cc2C(N)=O)cc1-n1cccn1` [Example 2-200, 6-(((2S,3R)-2-aminopentan-3-yl)amino)-2-((6-ethoxy-5-(1H-pyrazol-1-yl)pyridin-3-yl)amino)-5-fluoronicotinamide], the IC50 lay in the range of 0.01 to 0.05 µM.
